A short description of data set [1]: clinical. The settings on record: human, plasma.
The nature of data set [2]: clinical. The settings on record: human, in vivo, po, 30 mg.
The species entered for another data set is Rattus norvegicus. The settings on record: in vivo, po, BLD = below limit of detection.
Data set [3] in a line: in vivo. The settings on record: rat.
A short description of data set [4]: in vivo. The following applies: rat, po.
The next data set can be described thus: physchem. The settings on record: buffer, pH 7.4.

Usually AUC stands for concentration integrated over time. What is called Cmax is the highest concentration seen after dosing. In turn, `CS(=O)(=O)O.OCCn1cc(-c2cnc3nnn(Cc4ccc5ncccc5c4)c3n2)cn1` returned an AUC in “clinical [1]” of 810 ng·h/mL. In addition, the peak level in the data set “clinical [2]” (Cmax at 1.2 h) was 240 ng/mL.

One may read the Vd as a proportionality between amount in the body and measured concentration, not a real space. Read a high Vd as extensive tissue distribution. Regarding `N[C@@H]1CCN(c2cnc3nnn(Cc4ccc5ncccc5c4)c3n2)C1`, the F result in the data set filed under Rattus norvegicus is “BLD”. The compound also came in with a distribution volume (Vd) in the data set “in vivo [3]” of 3.6 L/kg.

For the compound `c1cnc2ccc(Cn3nnc4ncc(-c5cnn(C6CCNCC6)c5)nc43)cc2c1`, in the data set filed under Rattus norvegicus, the F entry is listed as “BLD”. In the data set “in vivo [3]”, the Vd came out at 27 L/kg.

A word on the bioavailability: it is dose-corrected exposure relative to a reference, in per cent. Low values mean poor availability, high ones good availability. For orientation: logD means the decadic logarithm of the distribution of all forms, ionised or not, between an organic phase and buffer at a given pH. With `Nc1cnc2nnn(Cc3ccc4ncccc4c3)c2n1`, in “in vivo [3]”, the Vd came out at 0.95 L/kg. In the data set “in vivo [4]”, the bioavailability is 75%. In “physchem”, the logD amounted to 1.23.

With `OCCn1cc(-c2cnc3nnn(Cc4ccc5ncccc5c4)c3n2)cn1` [PF-04217903], the Vd in “in vivo [3]” is 1.6 L/kg. This compound also gave a bioavailability in the data set “in vivo [4]” of 71%. For the same compound, the logD in the data set “physchem” was 1.38.

These data come from ChEMBL document CHEMBL2169886 (J Med Chem, 2012).
